Here are results for five compounds from EP2433636A1, “Treatment of Malignant Diseases” (Medizinische Universität Wien, priority 2010, dated 2012).

“Also recorded” adds a separate entry of the source.

Data set [1] can be described thus: Solubility test in 20-30% DMSO in water. The format is physicochemical. The settings on record: appropriate if 1mM of the compound is soluble in 20-30% DMSO in water; 100 mM stock in 100% DMSO. As to the method:
Compounds in powder form were dissolved in 100% DMSO to obtain 100 mM stock solutions of each of the compounds. Solubility of the compounds was then tested by preparing solutions in 20-30% DMSO in water. […] Compounds which were non-soluble in 30% DMSO were regarded as non-soluble. NSC23766 was always used as a reference compound.

In the next data set the test system is phospho-ERK. Nature of the data set: Phospho-ERK by flow cytometry. The data set is classed as cell-based, Human. Particulars: compared to untreated cells. As to the method: (§1) Tumour cells were seeded in 10 cm plates and allowed to adhere before treatment with 20 µM compound AZA1 for 4 h before trypsinization and washing with PBS.
(§2) One portion of the cells were then fixed with 70% ethanol for 1h at 4°C, washed with PBS and stained with propidium iodide (PI) puffer with 50 µg/ml DNase-free RNaseA. Cells in different cell cycle stages were determined. The rest of the cells were fixed with Cytofix fixation buffer (BD) for 30 min at 37°C, washed and then permeabilized with Perm buffer III (BD) and stained with Cyclin D1 (anti-human Cyclin D1 antibody set), phospho-Akt (anti-phospho-Akt pT308), phospho-ERK (anti-phospho-ERK1/2 pT202/pY204), phospho-JNK (anti-phospho-JNK pT183/pY185) and phospho-p38 antibodies (anti-phospho-p38 MAPK pT180/pY182) (the latter antibodies were purchased from BD Biosciences). […] were analyzed on a FACScan flow cytometer (BD Biosciences) with an argon laser tuned to 488 nm.
For orientation: Flow cytometry measures light scatter and fluorescence of single cells or particles in a stream.

Data set [2] concerns CRL-2505 cells. Nature of the data set: Apoptosis by flow cytometry (Annexin V-FITC and PI). The format is cell-based, Human. Particulars: 3 h after treatment. An excerpt: Then the effect of Rac1 inhibition on the cell cycle regulatory protein Cyclin D1 was examined. […] Next, flow cytometry was used to assess apoptosis in response to Rac1 inhibition.
A further data set deals with Pak1. As to the kind of experiment: Western blot, Pak1 total protein. The format is cell-based, Human. Particulars: 2 µM for 24h, compared to controls. The method, then:
(§3) Cell lysates were prepared (Aharinejad et al., Cancer Res. 62 (2002), 5317-5324 and Cancer Res. 64 (2004), 5378-5384) and 50 µg/lane separated by 9% SDS-PAGE prior to electrophoretic transfer onto Hybond C super (Amersham Pharmacia Biotech, Buckinghamshire, UK). The blots were probed with antibodies against PAK1 and phospho-Pak1 (pS144)/Pak2 (pS141) (Cell Signaling Technology, Danvers, MA) before incubation with horseradish peroxidase-conjugated secondary antibodies (Amersham Pharmacia Biotech). Proteins were immunodetected by chemiluminescence (Supersignal-West- Femto, Pierce, Rockford, IL) and quantified by Image Quant 5.0 software (Molecular Dynamics, Sunnyvale, CA).
Background: A western blot detects proteins with antibodies after separation by electrophoresis.

In data set [3] the test system is CRL-2505 prostate cancer cells. As to the kind of experiment: WST-1 cell proliferation assay. The format is cell-based, Human. The settings on record: 72 hours of incubation with 1, 2, 5, 10 and 25 µM, compared to untreated cells. The method, then:
Human CRL-2505 cells were seeded in 96-well plates at a density of 1x10^4 cells/well in culture medium. Cells were incubated with 1, 2, 5, 10, 25 µM compound AZA1. Cell proliferation was determined 24, 48 or 72 h after treatment using the WST-1 reagent (Roche Diagnostics, Indianapolis, IN) according to the manufacturer's protocol (Zins et al., Cancer Res. 67 (2007), 1038-1045). Each experiment was repeated three times.
A general note: Tetrazolium assays rely on reduction of a dye to a coloured formazan, in cell work by metabolically active cells.

The test system of the next data set is Cyclin D1. Nature of the data set: Cyclin D1 expression by flow cytometry. The data set is classed as cell-based. Particulars: Homo sapiens, 4 h; compared to untreated controls; read-out: Cyclin D1 fluorescence intensity, decrease. As to the method: as §1, §2
Data set [4] concerns CRL-2505 cells. Nature of the data set: Cell cycle distribution by flow cytometry (propidium iodide). The data set is classed as cell-based, Human. The settings on record: 24 h; for sub G1 events (M1): untreated 1.47%. As to the method:
as §2

The subject of data set [5] is CRL-2505 prostate cancer xenograft. Nature of the data set: Human prostate cancer xenograft tumour model. The format is in vivo, athymic nu/nu (nude) mice. The method, then: The experiments performed in this study were approved by the Institutional Animal Care and Use Committee at the Vienna Medical University. Pathogen-free, male, 5 week-old athymic nu/nu (nude) mice (Charles River, Sulzfeld, Germany) were weighed, coded and divided into experimental groups of (n = 10) at random. Mice were anesthetized (ketamine hydrochloride/xylazine at 55/7.5 mg/kg i.p.) and 15x10^6 CRL-2505 cells/100 µl PBS were injected s.c. into the left flank (Aharinejad et al., 2004). In a preliminary experiment mice received i.p. injections with 100 µg compound AZA1, AZA2, AZA3, or AZA4 in 100 µl 30% DMSO six days after cell injection for two weeks, control animals received 100 µl 30% DMSO/day (n = 5 for each group). […] Tumour volumes were calculated as length x width^2/2. […]
On day 24, tumors were isolated, weighed and the animals were sacrificed. […] Primary antibodies were detected by sequential incubation with appropriate biotinylated secondary antibodies (Vector Laboratories, Burlingame, CA) and peroxidase conjugated streptavidin (Dako), developed with 3, 3'-diaminobenzidine (Vector Laboratories), counter-stained with haemalaun, dehydrated and mounted in DPX (Merck, Darmstadt, Germany) and digitalized images were generated.

Data set [6] deals with phospho-Pak1 (pS144)/Pak2 (pS141). Nature of the data set: Western blot, phospho-Pak1/2. The format is cell-based, Human. The settings on record: 2 µM for 24h, compared to controls. As to the method:
as §3

The next data set relates to phospho-JNK. As to the kind of experiment: Phospho-JNK by flow cytometry. The settings on record: compared to untreated cells. The data set is classed as cell-based, Human. As to the method: as §1, §2
The subject of a further data set is Rac 1, 2, 3. Nature of the data set: Rac 1, 2, 3 activation assay (G-LISA) after EGF stimulation. The format is cell-based, Human. The method, then:
Prostate cancer cells were seeded in 6-well plates and starved for 20 h. Cells were incubated with Rac1 small molecule inhibitor AZA1 for 4 h and then stimulated with 50 ng/ml epidermal growth factor (EGF) (R&D systems) for 1 min 30 sec and Rac activation was then measured with the G-LISA method (Rac 1, 2, 3 activation assay, colorimetric format, Cytoskeleton) according to the manufacturer's protocol.

In a further data set the test system is phospho-Akt. Nature of the data set: Phospho-Akt by flow cytometry. The format is cell-based, Human. As to the method: as §2
The next data set relates to Prostate cancer cells. As to the kind of experiment: In vitro migration assay (Boyden chamber). The format is cell-based, Human. The settings on record: compared to untreated controls. As to the method:
Prostate cancer cells (5x10^4 in 1 ml DMEM with 10% FCS) were added to the top of each Boyden migration chamber (8-µm, 12-well plate format; BD Biosciences, Palo Alto, CA). Cells were incubated with 1, 2, and 5 µM of compound AZA1. […] Cells from the upper side of the membrane were removed with cotton swabs. The membranes were excised using a scalpel, inverted and transferred to a PBS filled tissue culture well. Membranes were then fixed in methanol for 2 min at -20°C. After washing in PBS, membranes were stained with 1 µg/ml 4'-6-Diamidino-2-phenylindole (DAPI) in PBS for 10 min at RT and washed again in PBS. Membranes were then embedded in Cityfluor (Cityfluor, Leicester, UK) on glass slides under coverslips. Representative sectors of migrated prostate cancer cells were counted under a fluorescence microscope. Each experiment was performed in triplicate.

The next data set has as its system phospho-p38. Nature of the data set: Phospho-p38 by flow cytometry. The settings on record: compared to untreated cells. The format is cell-based, Human. As to the method: as §1, §2
Data set [7] deals with CRL-2505 prostate cancer xenograft. Nature of the data set: Survival study in prostate cancer xenograft bearing mice. The data set is classed as in vivo, athymic nu/nu (nude) mice. The method, then: The experiments performed in this study were approved by the Institutional Animal Care and Use Committee at the Vienna Medical University. Pathogen-free, male, 5 week-old athymic nu/nu (nude) mice (Charles River, Sulzfeld, Germany) were weighed, coded and divided into experimental groups of (n = 10) at random. Mice were anesthetized (ketamine hydrochloride/xylazine at 55/7.5 mg/kg i.p.) and 15x10^6 CRL-2505 cells/100 µl PBS were injected s.c. into the left flank (Aharinejad et al., 2004). In a preliminary experiment mice received i.p. injections with 100 µg compound AZA1, AZA2, AZA3, or AZA4 in 100 µl 30% DMSO six days after cell injection for two weeks, control animals received 100 µl 30% DMSO/day (n = 5 for each group). In the main experiment, mice received i.p. injections with 100 µg compound AZA1 in 100 µl 30% DMSO six days after cell injection for two weeks, control animals received 100 µl 30% DMSO/day (n = 10 for each group). Tumour volumes were calculated as length x width^2/2. All animals were sacrificed on day 20.
The survival study was set for three months. Mice were treated with compound AZA1 (n = 10) or 30% DMSO (n = 10) and were euthanized when moribund.
Data were tested for normality using the Shapiro-Wilk test. Groups were compared by nonparametric analysis of variance (ANO-VA, Wilcoxon rank-sum test, Kruskal-Wallis test). All statistical tests were two-sided. The overall survival curves after treatment were analyzed by the Kaplan-Meier survival test. Statistical tests were performed with the use of SAS software (version 9.1.3) and Enterprise Guide (version 4.1, SAS Institute Inc., Cary, NC). Data are expressed as means ± SD. P values of < 0.05 were considered to indicate statistical significance.

Data set [8] has as its system chronic myelogenous leukemia (CML). Particulars: in vitro and in vivo; cited from earlier work.
The subject of another data set is PC-3. Particulars: Rac-hyperactive prostate cancer cells PC-3; cited from earlier work.

As to `CCN(CC)CCCC(C)Nc1ncc(C)c(Nc2ccc3[nH]c(C)cc3c2)n1` (stereo not shown) [Compound 10, N*2*-(4-Diethylamino-1-methyl-butyl)-5-methyl-N*4*-(2-methyl-1H-indol-5-yl)-pyrimidine-2,4-diamine], the solubility entry in [1] is on record as “appropriate solubility”.
For `Cc1cc2cc(Nc3ccnc(Nc4ccc5[nH]c(C)cc5c4)n3)ccc2[nH]1` [AZA1, N*2*,N*4*-Bis-(2-methyl-1H-indol-5-yl)-pyrimidine-2,4-diamine], in the data set with phospho-ERK, the “activity of ERK (phospho-ERK)” value is “not affected”. In addition, the “apoptosis (staining with Annexin V-FITC and PI)” value in the data set on CRL-2505 cells [2] was “no significant signs of apoptosis”. Besides, the Pak1 expression result with Pak1 is “not changed”. Moreover, the solubility entry in data set [1] is “appropriate solubility”. In data set [3], the CRL-2505 cell proliferation entry is on record as “significantly reduced”. Besides, the inhibition at 20 µM in the data set with Cyclin D1 amounted to 22%; in the data set with phospho-Akt (Homo sapiens, 1 h, 20 µM for 60 min (Fig. 4A), compared to untreated cells, read-out: phospho-Akt levels, reduction), 24%. The entries for the “sub G1 events (M1)” value with CRL-2505 cells [4] (1 µM) and with CRL-2505 cells [4] (2 µM) were 8.08% and 9.26%, respectively. Besides, the “G2/M (M4) phases” value in the data set on CRL-2505 cells [4] (2 µM, untreated 32.25%) is 28.44%. Moreover, the “ranking of AZA1 to AZA4 in the in vivo experiments (solubility, lack of toxicity, tumor-suppressive effects)” value in [5] (preliminary experiment, 100 µg i.p. in 30% DMSO, n = 5 per group) is recorded as “most potent agent”. The “cell proliferation, staining with Ki-67 antibody” value in data set [5] (tumour tissue sections, day 24) is “reduced”. Also, in data set [6], the “Pak1/2 phosphorylation at serine 144/141” value is recorded as “significantly reduced”. In addition, in the data set on phospho-JNK, the “phosphorylation of JNK” value is given as “significant decrease”. The Rac activity entry in the data set on Rac 1, 2, 3 (CRL-2505 cells, 5, 10 and 20 µM, 4 h incubation, then 50 ng/ml EGF) was “reduced Rac activity significantly”. The “Rac inhibiting activity, compared with the other screened compounds or NSC23766” value in the data set on Rac 1, 2, 3 (screening of the newly designed compounds, CRL-2505 cells after EGF treatment) is reported as “improved Rac inhibiting activity when compared to NSC 23766; also recorded: most effective Rac inhibitor”. The “pAkt at different time points” value with phospho-Akt (5 min to 90 min after treatment) was “decreased significantly”. For the same compound, the cancer cell migration entry in the data set with Prostate cancer cells (1 µM) is on record as “failed to reduce cancer cell migration”; in the data set on Prostate cancer cells (2 µM, 20 h), “significantly reduced migration”; with Prostate cancer cells (5 µM, 20 h), “significantly reduced migration”. For the same compound, the “phosphorylation of p38” value with phospho-p38 was “significant decrease”. Also, the “median time to death” value in [7] (after tumour cell grafting, control 39 ± 15 days) is on record as 46 ± 4 days. The animals still alive in [7] (day 42, when the last control animal died) is listed as 60%. For the same compound, the survival entry in data set [7] (vs. control mice, Kaplan-Meier) is recorded as “significantly increased”.
In the case of `c1cc(Nc2ccc3[nH]ccc3c2)nc(Nc2ccc3[nH]ccc3c2)n1` [Compound 41, N*2*,N*4*-Bis-(1H-indol-5-yl)-pyrimidine-2,4-diamine], the solubility result in data set [1] was “appropriate solubility”.
Consider `c1cc(NCc2ccc3[nH]ccc3c2)nc(Nc2ccc3cc[nH]c3c2)n1` [Compound 55, N*2*-(1H-Indol-6-yl)-N*4*-(1H-indol-5-ylmethyl)-pyrimidine-2,4-diamine], for which, in data set [1], the solubility result was “appropriate solubility”.
Turning to `CCN(CC)CCCC(C)Nc1nc(C)cc(Nc2ccc3nc(C)cc(N)c3c2)n1` (stereo not shown) [NSC23766, N6-(2-((4-(diethylamino)-1-methylbutyl)amino)-6-methyl-4-pyrimidinyl)-2-methyl-4,6-quinolinediamine], the “proliferation of chronic myelogenous leukemia (CML)” value in data set [8] is on record as “inhibited proliferation”. Also, in the data set with PC-3, the anchorage independent growth entry is “able to inhibit”, the invasion entry was “able to inhibit” and the proliferation entry was “able to inhibit”.
